From PMC4603705, “A bioinspired peptide scaffold with high antibiotic activity and low in vivo toxicity” (Scientific Reports, 2015)
≈ marks a conversion by molar mass, not a printed value. Entries after “also recorded” stand apart in the source; their conditions may differ. Like-named read-outs stand apart in the source and are kept apart here. Bridge positions count the residues as written; N and C are the ends. Square brackets hold non-standard residues; d marks the D form. Peptide text beside a SMILES is read from it. * marks the point of attachment. Decanoyl = CCCCCCCCCC(=O)*; X1 = CC[C@H](C)CCCCC(=O)*; Nle = CCCC[C@H](N)C(=O)O; Dab = NCC[C@H](N)C(=O)O

How the values were obtained:
[1] = tested on: P. aeruginosa ATTC 9027; type: cell-based, Pseudomonas aeruginosa
Protocol: (§1) MICs were measured after 18–20 h of incubation in sterile 96-well plates (Corning Costar 3598 microtiter plates) in Mueller Hinton Broth (MHB) culture medium, (Difco, USA), according to well known in vitro protocols. Bacterial strains in Table 1 were: P. aeruginosa ATTC 9027, E. coli ATTC 8739, S. aureus ATTC 6538, and E. faecalis ATTC 29212. MICs shown in table 4 were performed by Mary Conrad at Cubist Pharmaceuticals (Lexington, MA) in non-binding surface plates.

[2] = tested on: E. coli ATTC 8739; type: cell-based, Escherichia coli
Protocol: as §1

[3] = tested on: E. coli; details: for MIC E. coli NDM-1: highly-resistant, New Delhi metallo-beta-lactamase gene; for MIC E. coli VAL 5 / MIC E. coli MAC 21a / MIC E. coli VAL 10: resistant to nalidixic acid; for MIC E. coli MAC 21a / MIC E. coli VAL 10: cotrimoxazole and ampicillin
Protocol: (§2) Strains of E. coli and P. aeruginosa with resistance to quinolones and carbapenems as well as multi-drug-resistant bacteria were tested.
as §1

[4] = tested on: P. aeruginosa
Protocol: as §2, §1

[5] = In vivo acute toxicity test (up-and-down procedure, OECD 425); parameters: species or system mice; details: mouse, in vivo, sc; CD-1 mice, subcutaneous, up-and-down procedure, maximum likelihood method, 14 days
Protocol: (§3) An in vivo acute toxicity test was performed on CD-1 mice. The lethal dose (LD50) was determined according to the up-and-down procedure. Compound 38 was administered subcutaneously at designated doses (100, 200 and 400 mg/kg).
(§4) The evaluation of acute toxicity was conducted based on OECD 425 (Acute Oral Toxicity – Up-and-Down-Procedure (UDP) March 2006). The procedure was evaluated and accepted by the Ethical Committee of Experimental Animals of the University of Barcelona.
(§5) The main test consists of a single ordered dose progression in which animals are dosed, one at a time, at a minimum of 24-hour intervals.
(§6) Compound 38 was dissolved in PBS (pH 7.4), and administered subcutaneously to CD-1 mice at selected doses (100, 200 and 400 mg/kg). Since 5 reversals occurred in 6 consecutive animals tested between the 200 mg/Kg dose (the 3 animals, survived), and the 400 mg/Kg dose (the 3 animals died) the test was stopped.
(§7) Mortality was monitored for 14 days post-treatment, and LD50 was determined using the maximum likelihood method.

[6] = tested on: CD-1 mice; experiment: as above; details: for Outcome of mice: CD-1 mice
Protocol: as §3, §4, §5, §6, §7

[7] = tested on: E. coli (ATCC 25922); experiment: Flow cytometry (PI membrane permeability, BOX membrane potential), E. coli; type: cell-based, Escherichia coli
Protocol: (§8) The mechanism of action at the membrane level of our best candidate was studied using flow cytometry. To assess membrane permeability, a propidium iodide (PI) probe was used[43][44]. The fluorescence conferred by this probe is generally associated with cells that have lost their membrane integrity. The effect on membrane potential was evaluated with bis-(1,3-dibutylbarbituric acid) trimethine oxonol (BOX). Membrane depolarization leads to the incorporation of this anionic dye into the cell where it binds to lipid-rich intracellular compounds, resulting in an increase in fluorescence.
(§9) An overnight culture (12 to 16 h) of S. aureus (ATCC 29213) or E. coli (ATCC 25922) in Tryptic Soy Broth (TSB) was grown at 37 °C and 400 μL were added in 50 mL of tryptone water (∼10^7 bacteria/mL). The bacterial suspension was split into aliquots of 4-5 mL and treated with the peptides (at the MIC) for different incubation times at room temperature. Cells were collected by centrifugation (10000 rpm, 20 min) and resuspended in 1 mL of filtered Ringer’s solution.
(§10) A stock solution of propidium iodide (PI, 1 mg/mL, Molecular Probes) and bis-(1,3-dibutylbarbituric acid) trimethine oxonol (BOX, 250 μM, Sigma Aldrich) was prepared in distilled water. Portions (10 μL and 2 μL, respectively) were added to aliquots of cells (100 μL of each sample in 1 mL of Ringer’s solution) to give a final concentration of 10 μg/mL of PI and 0.5 μM for BOX.
(§11) Flow cytometric measurements were performed on a Gallios multi-colour flow cytometer instrument (Beckman Coulter, Inc, Fullerton, CA) set up with the 3-lasers 10 colors standard configuration. Excitation was done using a blue (488 nm) laser. Forward scatter (FS), side scatter (SS), green fluorescence (525/40 nm) from BOX and red fluorescence (620/30 nm) emitted by PI were collected using logarithmic scales. FS was used as the discriminating parameter. The single-cell bacterial population was selected on a forward-side scatter plot. Fluorescence was presented in a dot plot of BOX vs. PI. Three regions were defined on this graph according to the controls: depolarized, permeabilized and non-affected cells. Control cells (non-stained and single stained populations) were used to define these regions. 25,000 cells defined according to their scatter parameters were counted in each sample.

[8] = tested on: S. aureus (ATCC 29213); experiment: Flow cytometry (PI membrane permeability, BOX membrane potential), S. aureus; type: cell-based, Staphylococcus aureus; details: 4 μg/mL
Protocol: as §8, §9, §10, §11

[9] = tested on: E. coli (ATCC 25922); experiment: Reduction of viability by plate count, E. coli; type: cell-based, Escherichia coli
Protocol: as §9

[10] = tested on: S. aureus (ATCC 29213); experiment: Reduction of viability by plate count, S. aureus; type: cell-based, Staphylococcus aureus; details: 4 μg/mL
Protocol: as §9

[11] = tested on: E. coli (ATCC 25922); experiment: Transmission electron microscopy of treated E. coli; type: cell-based, Escherichia coli
Protocol: (§12) An overnight culture (12 to 16 h) of S. aureus (ATCC 29213) or E. coli (ATCC 25922) in Tryptic Soy Broth (TSB) was grown at 37 °C and 500 μL were added in 50 mL of tryptone water (∼10^8 bacteria/mL). […] Cells were collected by centrifugation (10000 rpm, 20 min).
(§13) Samples were fixed with 2.5% glutaraldehyde in phosphate buffer for 2 h at 4 °C, then washed with the same buffer and post fixed with 1% osmium tetroxide in buffer containing 0.8% potassium ferricyanide at 4 °C. The samples were then dehydrated for 1 hour in acetone and infiltrated in a gradded series of Epon resin (Ted Pella Inc., USA) during 2 days, and finally embedded in fresh Epon resin and polymerised at 60 °C during 48 hours.
(§14) Ultrathin sections were obtained using a Leica Ultracut UCT ultramicrotome (Leica, Vienna) and mounted on Formvar-coated copper grids. Sections were stained with 2% aqueous uranyl acetate and lead citrate and examined in a JEM-1010 electron microscope (Jeol, Japan).

[12] = tested on: S. aureus (ATCC 29213); experiment: Transmission electron microscopy of treated S. aureus; type: cell-based, Staphylococcus aureus; details: 4 μg/mL, 120 min
Protocol: as §12, §13, §14

[13] = tested on: P. aeruginosa; details: P. aeruginosa 40b strain characterisation; cited from earlier work
[14] = tested on: S. aureus ATTC 6538; experiment: microbe, parasite or virus in culture; type: cell-based, Staphylococcus aureus; details: S. aureus ATTC 6538; Mueller Hinton Broth, 18–20 h
Protocol: as §1

[15] = tested on: CD-1 mice; details: reported value, no reference given; cited from earlier work
[16] = target: alternative NADH dehydrogenase; parameters: method as in PMID 19564154, PMID 24169795; details: Mycobacterium smegmatis; cited from earlier work
[17] = target: malate:quinone oxidoreductase; parameters: method as in PMID 19564154; details: Mycobacterium smegmatis; cited from earlier work
[18] = parameters: method as in PMID 22908162, PMID 24733472; details: after iv administration, after 6 h; cited from earlier work

## CCCCCCCCCC(=O)N[C@@H](CCN)C(=O)N[C@H](C(=O)N[C@@H](CCN)C(=O)N[C@H]1CSSC[C@H](C(N)=O)NC(=O)[C@H](CCN)NC(=O)[C@H](CCN)NC(=O)[C@H](CCCC)NC(=O)[C@@H](Cc2ccccc2)NC(=O)[C@H](CCN)NC1=O)[C@@H](C)O [Analog 38, decanoyl -Dab-Thr-Dab-Cys-Dab-Phe-Nle-Dab-Dab-Cys] (Decanoyl-[Dab]T[Dab]C[Dab][dF][Nle][Dab][Dab][dC]-NH2; disulfide 4-10)
[1]; ATTC 9027
  MIC P. aeruginosa: 1 µg/mL (≈ 0.808 µM)
[2]; ATTC 8739
  MIC E. coli: 2 µg/mL (≈ 1.62 µM)
[3]
  MIC E. coli NDM-1: 0.5 µg/mL (≈ 0.404 µM)
  MIC E. coli VAL 5: 0.5 µg/mL (≈ 0.404 µM)
  MIC E. coli MAC 21a: 0.5 µg/mL (≈ 0.404 µM)
  MIC E. coli VAL 10: 0.5 µg/mL (≈ 0.404 µM)
[4]
  MIC P. aeruginosa 38a: 0.5 µg/mL (≈ 0.404 µM)
  MIC P. aeruginosa 40b: 4 µg/mL (≈ 3.23 µM)
[5]
  LD50 at 14 days: 283 mg/kg
[6]; 100 mg/kg subcutaneous
  Outcome of mice: survived with no signs of toxicity
[6]; 200 mg/kg subcutaneous
  Outcome of mice: survived with no signs of toxicity; also recorded: survived
[6]; 200 mg/kg subcutaneous, after 14 days
  Necropsy of surviving mice: no signs of pathology in vital organs
[6]; 400 mg/kg subcutaneous
  Outcome of mice: died
[6]; subcutaneous
  LD50 relative to LD50 of PxB: ~5 times
[7]; 4 μg/mL, 30 min
  % of stained cells PI: 7%
[7]; 4 μg/mL, 30 min, listed as 38
  % of stained cells BOX: around 50%
[7]; 4 μg/mL, 30 min, listed as #38
  % of stained cells BOX: 47%
[7]; 4 μg/mL, 60 min
  % of stained cells BOX: 50%
  % of stained cells PI: 23%
[7]; 4 μg/mL, 120 min
  % of stained cells BOX: 47%
  % of stained cells PI: 43%
[8]; 30 min
  % of stained cells BOX: 1%
  % of stained cells PI: 2%
[8]; 60 min
  % of stained cells BOX: 1%
  % of stained cells PI: 3%
[8]; 120 min
  % of stained cells BOX: 4%
  % of stained cells PI: 4%
[9]; 4 μg/mL, 30 min
  % viability reduction: 20%
[9]; 4 μg/mL, 60 min
  % viability reduction: 60%
[9]; 4 μg/mL, 120 min
  % viability reduction: 85%
[10]; 30 min
  % viability reduction: 15%
[10]; 60 min
  % viability reduction: 60%
[10]; 120 min
  % viability reduction: 85%
[11]; 120 min, 2 μg/mL (Figure 2 legend)
  Effect on cell morphology (TEM): abnormal membrane septation and the formation of blebs on the bacterial surface
[12]
  Effect on cell morphology (TEM): numerous double-layered spherical mesosome-like structures

## C[C@@H](O)[C@H]1C(=O)N2C(C(=O)O)=C(SCCN=CN)C[C@H]12 [Imipenem]
[13]
  MIC, resistance profile of P. aeruginosa 40b: imipenem (MIC 32 mg/L)

## CC[C@H](C)CCCCC(=O)N[C@@H](CCN)C(=O)N[C@H](C(=O)N[C@@H](CCN)C(=O)N[C@H]1CCNC(=O)[C@H]([C@@H](C)O)NC(=O)[C@H](CCN)NC(=O)[C@H](CCN)NC(=O)[C@H](CC(C)C)NC(=O)[C@@H](Cc2ccccc2)NC(=O)[C@H](CCN)NC1=O)[C@@H](C)O [Polymyxin B] (X1-[Dab]T[Dab][Dab][Dab][dF]L[Dab][Dab]T; lactam 4-C; N-terminus assumed)
[14]
  MIC S. aureus: >32 µg/mL
[1]; P. aeruginosa ATTC 9027, Mueller Hinton Broth, 18–20 h
  MIC P. aeruginosa: 2 µg/mL (≈ 1.66 µM)
[2]; E. coli ATTC 8739, Mueller Hinton Broth, 18–20 h
  MIC E. coli: 1 µg/mL (≈ 0.831 µM)
[3]
  MIC E. coli NDM-1: 0.5 µg/mL (≈ 0.415 µM)
  MIC E. coli VAL 5: 0.25 µg/mL (≈ 0.208 µM)
  MIC E. coli MAC 21a: 0.25 µg/mL (≈ 0.208 µM)
  MIC E. coli VAL 10: 0.25 µg/mL (≈ 0.208 µM)
[4]; resistant to ceftazidime, ciprofloxacin, imipenem, piperacillin-tazobactam
  MIC P. aeruginosa 38a: 1 µg/mL
[4]; resistant to imipenem
  MIC P. aeruginosa 40b: 2 µg/mL (≈ 1.66 µM)
[7]; 0.5 μg/mL, 5 min
  % of stained cells PI: 11%
[7]; 0.5 μg/mL, 10 min
  % of stained cells BOX: 35%
  % of stained cells PI: 20%
[7]; 0.5 μg/mL, 15 min
  % of stained cells BOX: 17%
  % of stained cells PI: 60%
[7]; 0.5 μg/mL, 30 min
  % of stained cells BOX: 13%
  % of stained cells PI: 68%
[7]; 0.5 μg/mL, 60 min
  % of stained cells BOX: 23%
  % of stained cells PI: 57%
[7]; 0.5 μg/mL, 120 min
  % of stained cells BOX: 17%
[9]; 0.5 μg/mL, 5 min
  % viability reduction: 0%
[9]; 0.5 μg/mL, 10 min
  % viability reduction: 20%
[9]; 0.5 μg/mL, 15 min
  % viability reduction: 34%
[9]; 0.5 μg/mL, 30 min
  % viability reduction: 65%
[9]; 0.5 μg/mL, 60 min
  % viability reduction: 87%
[9]; 0.5 μg/mL, 120 min
  % viability reduction: 98%
[11]; 120 min at 0.5 μg/mL
  Effect on cell morphology (TEM): numerous protrusions were observed at the outer cell membrane and even some completely lysed membranes
[15]
  LD50 reported for subcutaneous administration: 59.5 mg/kg
[16]
  IC50 alternative NADH dehydrogenase: 1.6 µg/mL (≈ 1.33 µM)
[17]
  IC50 malate:quinone oxidoreductase: 4.3 µg/mL (≈ 3.57 µM)
[18]
  kidney concentration relative to serum concentration: more than 30 times
